Measured values taken from patent publication US20260158026A1, “METHODS OF TREATING CANCER AND COMPOSITIONS FOR THE SAME” (MARSAL THERAPEUTICS, INC., priority 2022, published 2026).
Like-named read-outs stand apart in the source and are kept apart here.

Columns and labels:
[1] = tested on: glioma cells from patient 1; assay: Immunostaining and quantification of Annexin V positive cells; assay type: cell-based, human
[2] = tested on: GBM cells isolated from an additional five patients; assay: IC50 measurement, cell viability assay; assay type: cell-based; conditions: Homo sapiens, FIG. 2
Protocol: (§1) Negative (100% DMSO) and positive (10 mM Staurosporine in DMSO) controls were placed in columns 10 and 11, respectively. The plate was diluted with 180 μL growth media/well and 5 μL of the resulting compound solution was transferred in quadruplicate to the assay plate. For the assay plate, 3,000 cells/well were plated in a 384 well clear bottom μL plate and allowed to adhere for at least 3 hours. […] The plates were incubated for 1, 2, 3, or 4 days. ATP levels were measured after incubation.
Serial dilutions in FIG. 2 show the effect of Compound 1 on GBM cells isolated from an additional five patients.

Colon Cancer (HT-29) = assay: IC50 measurement, cell viability assay; assay type: cell-based; conditions: Homo sapiens, HT-29, 96 h, after 4 days of treatment
Protocol: as §1, with “incubation. Based on the results of Example 1, Compound 1 was selected for further evaluation.” for “incubation.”

Patient 1 GBM cells = assay: IC50 measurement, cell viability assay; assay type: cell-based; conditions: Homo sapiens
Protocol: as §1, with “incubation. Based on the results of Example 1, Compound 1 was selected for further evaluation.” for “incubation.”

[3] = tested on: Breast Cancer (MDA-MB-231); assay: IC50 measurement, cell viability assay; assay type: cell-based; conditions: Homo sapiens, MDA-MB-231, 96 h, after 4 days of treatment
Protocol: as §1, with “incubation. Based on the results of Example 1, Compound 1 was selected for further evaluation.” for “incubation.”

[4] = tested on: Pancreatic Cancer (MIA-PACA); assay: IC50 measurement, cell viability assay; assay type: cell-based; conditions: Homo sapiens, MIA PaCa-2, 96 h, after 4 days of treatment
Protocol: as §1, with “incubation. Based on the results of Example 1, Compound 1 was selected for further evaluation.” for “incubation.”

Lung Cancer (H1299) = assay: IC50 measurement, cell viability assay; assay type: cell-based; conditions: Homo sapiens, NCI-H1299, 96 h, after 4 days of treatment
Protocol: as §1, with “incubation. Based on the results of Example 1, Compound 1 was selected for further evaluation.” for “incubation.”

[5] = tested on: patient-derived glioma cells; assay: siRNA knockdown of CRISPR-Cas9 hits followed by IC50 measurement; assay type: cell-based, human
Protocol: FIG. 7C is a graph of cell viability after treatment with Compound 1 for certain targets identified in FIG. 7B in patient-derived glioma cells followed by measurement of IC50 post-treatment with serial dilution of Compound 1 according to Example 8.
(§2) With reference to Step I in FIGS. 7A and 7B, whole genome CRISPR-Cas9 studies (B. Schmierer, Mol Systems Biol., 13, 945 (2017)) were carried out to identify potential targets that could explain the effect produced by Compound 1 on cancer cells. […] With reference to Step II in FIG. 7A and FIGS. 8A and 8B, after the CRISPR screening analysis was complete, the expression of identified hits were confirmed in GB cells as shown in FIG. 8A. The binding of Compound 1 to the identified hits was established via a pull-down assay using biotin labeled Compound 1 (FIG. 8B).

[6] = tested on: identified hits (BMPR1A, UTP23, ARHGAP33, ITSN1); assay: Pull-down assay using biotin labeled Compound 1; assay type: binding, human; conditions: pull-down with biotin labeled Compound 1, FIG. 8B
Protocol: as §2

GBM cells [7] = assay: Mitochondrial membrane potential (JC1 staining); assay type: cell-based, human; conditions: CCCP positive control, DMSO negative control; 24, 48, 72 hrs, FIGS. 5A and 5B
Protocol: FIG. 5B is a bar graph of JC1 staining for mitochondrial depolarization in GMB cells treated with DMSO (negative control), CCCP (positive control), or Compound 1 (CMPD1) at 24 hrs, 48 hrs, and 72 hrs according to Example 6.
GBM cells were treated with Compound 1, carbonyl cyanide m-chlorophenyl hydrazine (CCCP; positive control), or DMSO (negative control) and the mitochondrial membrane potential (indicative of functional status of the GBM cells) was measured and analyzed.

[8] = tested on: fibroblast cells from patient 1; assay: IC50 measurement, cell viability assay; assay type: cell-based; conditions: Homo sapiens
Protocol: as §1

GBM cells [9] = assay: Mitochondria vacuolization by Transmission Electron Microscopy; assay type: cell-based, human; conditions: 2.5 μM, 5 μM, or 10 μM; 3, 6, 12, 24, and 48 hours
Protocol: Referring to FIGS. 6A and 6B, the GBM cells were analyzed via Transmission Electron (TEM) Microscopy after 3, 6, 12, 24, and 48 hours of incubation.

Glioma cells = assay: Cytotoxicity and apoptosis assays (ApoTox-Glo); assay type: cell-based, human
fibroblasts = assay: Long-term exposure assay; assay type: cell-based, human; conditions: 0.1 μM, 21 days, FIG. 3B
[10] = tested on: glioma cells from patient 1; assay: Immunostaining with Caspase 3 antibody (apoptosis marker); assay type: cell-based, human; conditions: compared to positive control staurosporin, FIGS. 4C and 4D
[11] = previous clinical trials; cited from earlier work
[12] = tested on: Patient-derived GBM cells; assay: Long-term exposure assay; assay type: cell-based, human; conditions: 0.1 μM, incubated for 21 days, FIG. 3A
Protocol: Long-term Exposure Assay: Measurements for long-term assays were performed on days 4, 8, 14, and 21. 3,000 cells/well were plated in a 384 well plate (for day 4 assay), a 96 well plate (for day 8 assay), a 24 well plate (for day 14 assay), a 6 well plate (for day 21 assay), or a 10 cm plate (for day 30 assay) and allowed to adhere as above. Following this, media was exchanged to DMEM (without FBS+1× Penstrep) with either DMSO as control treatment or compound (at final concentration of 0.1 μM or 5 μM). Every four days, media was replaced with fresh DMEM (without FBS+1×Penstrep) comprising DMSO (control) or compound. At the end of days 4, 8, 14, and 21 cell viability assays were performed.
Patient-derived GBM cells were treated with Compound 1 at concentrations of 5 μM or 0.1 μM and incubated for 21 days. Fibroblasts were used as a control (FIG. 3B).

fibroblast control = assay: Immunostaining and quantification of Annexin V positive cells; assay type: cell-based, human
[13] = tested on: GBM cancer cell line xenograft; assay: GBM xenograft stereotactically implanted into the brain of nude mice; assay type: in vivo; conditions: oral administration, versus mice not treated
Text: A GBM cancer cell line was xenografted into 8-week old male nude mice and the tumor was allowed to develop for four weeks. The GBM cells were stereotactically implanted into the brain and allowed to grow for four weeks. After four weeks, treatment with Compound 1 via oral administration was started (Day 1). The mice were allowed to live until the ethical endpoint of the study was reached. Body weight and activity of animals were monitored continuously.

GBM cells [14] = assay: Combination with FDA approved oncology drugs, cell viability; assay type: cell-based, human; conditions: combination with Compound 1, FIGS. 12A-C
Text: The FDA approved oncology drugs included temozolomide (TMZ), ixabepilone, cladribine, enzalutamide, omacetaxine mepesuccinate, epothilones, erubulin, and latrunculin.

Fc1ccc(C(OCCN2CCN(CCCc3ccccc3)CC2)c2ccc(F)cc2)cc1 [Compound 1, vanoxerine]
Apoptosis positive cells, Annexin V [1]: do not produce more apoptosis positive cells | IC50 [2]: 4.72 µM | IC50 (Colon Cancer (HT-29)): 2.4 µM | IC50 (Patient 1 GBM cells; 96 h, after 4 days of treatment, cell viability assay, read-out: Mean IC50, Brain Cancer (Patient 1 GBM cells)): 2.2 µM | IC50 (Patient 1 GBM cells; Glioma cell, 96 h, serial dilution, 4 days of incubation, FIG. 1B, read-out: IC50 for glioma cells from patient 1): 4.9 µM | IC50 (Patient 1 GBM cells; various cell passages, FIG. 1C, range printed from about 300 nM to about 6.4 μM, read-out: IC50 for GBM cells, lower end of range over cell passages): ~0.3 µM | IC50 (Patient 1 GBM cells; various cell passages, FIG. 1C, range printed from about 300 nM to about 6.4 μM, read-out: IC50 for GBM cells, upper end of range over cell passages): ~6.4 µM | IC50 [3]: 2.3 µM | IC50 [4]: 2.4 µM | IC50 (Lung Cancer (H1299)): 2.1 µM | IC50 after knockdown of ARHGAP33 versus controls ([5]; siRNA knockdown of ARHGAP33, FIG. 7C): higher IC50 values | IC50 after knockdown of BMPR1A versus controls ([5]; siRNA knockdown of BMPR1A, FIG. 7C): higher IC50 values | IC50 after knockdown of ITSN1 versus controls ([5]; siRNA knockdown of ITSN1, FIG. 7C): higher IC50 values | Binding to the identified hits [6]: established | Mitochondrial membrane potential (GBM cells [7]): depolarization of mitochondria in a manner similar to CCCP | IC50 ([8]; 96 h, serial dilution, 4 days of incubation, FIG. 1B, read-out: IC50 for fibroblast cells from patient 1): 13.8 µM | IC50 ([8]; various cell passages, FIG. 1D, read-out: IC50 for the fibroblasts, range over cell passages): 16 to 41 µM | Vacuolization of mitochondria (TEM) (GBM cells [9]): induced vacuolization of mitochondria | Apoptosis (ApoTox-Glo) (Glioma cells): apoptosis was not initiated | Cytotoxicity (ApoTox-Glo) (Glioma cells): immense cytotoxicity | Cytotoxicity towards fibroblasts, long-term exposure (fibroblasts): without exhibiting cytotoxicity | Apoptosis positive cells, Caspase 3 immunostaining [10]: did not produce apoptosis positive cells | Safety when administered to humans [11]: establishing its safety | Effect on GBM cells, long-term exposure [12]: eliminated the GBM cells | Apoptosis positive cells, Annexin V (fibroblast control): do not produce more apoptosis positive cells | Physical activity [13]: increased physical activity | Tumor size ([13]; FIG. 9): reduction in tumor size | Bodyweight ([13]; FIG. 10): reduced loss in bodyweight | Life span ([13]; FIG. 11): increased life span

Nc1nc(Cl)nc2c1ncn2[C@H]1C[C@H](O)[C@@H](CO)O1 [cladribine]
Cell viability, Compound 1 in the additional presence of the named drug (GBM cells [14]): statistically significant decreases in cell viability

CNC(=O)c1ccc(N2C(=S)N(c3ccc(C#N)c(C(F)(F)F)c3)C(=O)C2(C)C)cc1F [enzalutamide]
Cell viability, Compound 1 in the additional presence of the named drug (GBM cells [14]): statistically significant decreases in cell viability

C/C(=C\c1csc(C)n1)[C@@H]1C[C@@H]2O[C@]2(C)CCC[C@H](C)[C@H](O)[C@@H](C)C(=O)C(C)(C)[C@@H](O)CC(=O)N1 [ixabepilone]
Cell viability, Compound 1 in the additional presence of the named drug (GBM cells [14]): statistically significant decreases in cell viability
